Data from patent US9790193B2, “Semicarbazide-sensitive amine oxidase inhibitors for use as analgesics in traumatic neuropathy and neurogenic inflammation” (PÉCSI TUDOMÁNYEGYETEM, priority 2014, dated 2017).
Entries after “also recorded” stand apart in the source; their conditions may differ.

Experiments:
[1] = test system: sciatic nerve ligation-induced cold allodynia; test: Sciatic nerve ligation-induced cold allodynia in mice (paw withdrawal latency from 0° C. water); assay type: in vivo, male C57Bl/6 mice; conditions: mouse, injured paw, days 3 and 7 after nerve ligation
Description: (§1) On the 3rd and on the 7th day following the nerve ligation, the mechano-nociceptive thresholds were determined directly before and 15 min after i.p. drug administration to observe the difference between pre-injection and post-injection thresholds in mice. We determined the developing cold allodynia following the sciatic nerve ligation at Days 3 and 7. In rats we examined the developing mechanical allodynia just 7 days after the sciatic nerve ligation on the same way like in mice. Only animals with a minimum of 25% hyperalgesia/allodynia were included in the study (Seltzer et al., Pain., 1990, 43(2):205-18; Pintér et al., Naunyn Schmiedebergs Arch Pharmacol., 2002, 366(2):142-50.).
Mice were anaesthesized with a combination of ketamine and xylazine (100 mg/kg and 5 mg/kg i.p. respectively), but in rats Na-pentobarbital (40 mg/kg i.p) were used. […]
A noxious cold stimulus was applied by immersing one of the murine hindpaws in icy water, remaining the temperature steady at 0° C. Cold perception was assessed as the time taken by the animal to pulling out its paw from the cold water, the cut-off time was 180 seconds. […]
The paw withdrawal latency values were determined as % by comparing the latencies measured on day 3 and 7 after the operation to the mean initial latency values. […] Results are expressed as means±s.e.m of the withdrawal behaviour latency changes of n=6-6 mice per groups. […]

[2] = test system: sciatic nerve ligation-induced mechanical allodynia; test: Sciatic nerve ligation-induced traumatic mononeuropathy, mechanical allodynia in rats (dynamic plantar aesthesiometry); assay type: in vivo, male Wistar rats; conditions: for change of the mechanonociceptive thresholds, contralateral side of the operated rats / inhibitory effect on mechanical allodynia / mechanical allodynia (decrease of withdrawal threshold vs initial control) after drug injection: rat; for change of the mechanonociceptive thresholds, contralateral side of the operated rats: contralateral paw; for change of the mechanonociceptive thresholds, contralateral side of the operated rats / mechanical allodynia (decrease of withdrawal threshold vs initial control) after drug injection / change of the mechanonociceptive thresholds, sham-operated group: 20 mg/kg i.p.; for inhibitory effect on mechanical allodynia / mechanical allodynia (decrease of withdrawal threshold vs initial control) after drug injection: operated limb; for inhibitory effect on mechanical allodynia: day 7, 20 mg/kg i.p., post- vs pre-injection; for mechanical allodynia (decrease of withdrawal threshold vs initial control) after drug injection: day 7 after nerve ligation, 15 min after administration, mean±s.e.m.; for change of the mechanonociceptive thresholds, sham-operated group: sham-operated rats
Description: (§2) The solutions were prepared freshly on the day of the experiment with sterile saline. SZV-1287 (prepared according to WO 2010/029379 A1) dissolved in saline and the solution was clear. The SZV-1911 (prepared according to WO2006/094201 and WO2005/014530) solution was prepared with Tween 80 and ethanol, stirred properly with a vortex, heated moderately to 42° C. and sonicated, but it was still opalescent. The i.p. administered volume was 0.2 ml/100 g body weight from 10 mg/ml in rats solution and 0.1 m/10 g body weight from 2 mg/ml solution to achieve the 20 mg/kg doses. The solvent of SZV-1911 was given to the vehicle-treated animals in the same volume.
(§3) Sciatic nerve ligation-induced traumatic mononeuropathy experiments were performed on male Wistar rats (250-300 g), and on male C57Bl/6 mice as well as resiniferatoxin- or formalin-induced hyperalgesia. The original breeding pairs of the animals were purchased from Charles River Ltd. All the animals were kept in the Animal Facility of the Department of Pharmacology and Pharmacotherapy at the University of Pécs at 24-25° C. provided with standard chow and water ad libitum.
Before all experiments one conditioning and three reliable control threshold measurements were performed on three consecutive days. All operations were performed by the same operator, who was blinded to the animal group assignments and the treatment allocation (FIG. 1A for the rat, B for the mouse experimental paradigm).
as §1
Mice were anaesthesized with a combination of ketamine and xylazine (100 mg/kg and 5 mg/kg i.p. respectively), but in rats Na-pentobarbital (40 mg/kg i.p) were used. The common sciatic nerve was exposed unilaterally on the right side high in the thigh and ⅓-½ of the nerve trunk was carefully separated and tightly ligated using a siliconised silk suture (Ethicone 5-0 and 8.0, respectively). Then the wound was closed and the animals were allowed to survive for 8 days (Seltzer, 1990; Malmberg and Basbaum 1998; Bolcskei et al. 2005; Sandor et al. 2010). During this period, signs of spontaneous pain (holding the legs in elevated position transiently for 2-3 days) and mechanical hyperalgesia and cold allodynia developed. In order to investigated the efficacy of these drugs we examined the drop of the mechanical touch sensitivity on Day 3, however the decrease of the mechanical threshold develops fully 7 days after the surgery.
The mechanical touch sensitivity thresholds of the plantar surface of the paws was determined by aesthesiometry (Ugo Basile Dynamic Plantar Aesthesiometer 37400; Comerio, Italy). This is an electronic von Frey device, in which the animals moved about freely in one of the compartments of the enclosure positioned on the metal mesh surface. Following acclimation after cessation of exploratory behaviour, the touch stimulator unit was placed under the animal's paw, using the adjustable angled-mirror to position the filament below the target area of the plantar surface. Then an electrodynamic actuator of proprietary design lifted a straight metal filament, which touched the plantar surface and began to exert an increasing upward force at a preset rate of application until a stop signal (removal of the paw) was attained. The paw withdrawal threshold was obtained in grams. […]

RTX-induced hyperalgesia = test: Resiniferatoxin-evoked thermal and mechanical hyperalgesia in mice; assay type: in vivo, male C57Bl/6 mice; conditions: mouse; for drop of mechanonociceptive threshold after RTX at 2 hours: solvent group 47.1±6%; for acute neurogenic inflammatory heat allodynia: only significant in case of SZV-1287 after RTX
Description: as §2, §3
The mechanical touch sensitivity thresholds of the plantar surface of the paws was determined by aesthesiometry (Ugo Basile Dynamic Plantar Aesthesiometer 37400; Comerio, Italy). This is an electronic von Frey device, in which the animals moved about freely in one of the compartments of the enclosure positioned on the metal mesh surface. Following acclimation after cessation of exploratory behaviour, the touch stimulator unit was placed under the animal's paw, using the adjustable angled-mirror to position the filament below the target area of the plantar surface. Then an electrodynamic actuator of proprietary design lifted a straight metal filament, which touched the plantar surface and began to exert an increasing upward force at a preset rate of application until a stop signal (removal of the paw) was attained. The paw withdrawal threshold was obtained in grams. Hyperalgesia or allodynia (decrease of the withdrawal thresholds) was expressed as percentage by comparing the data of each individual animal to the averaged three initial control thresholds.
Resiniferatoxin (RTX) is a potent agonist of Transient Receptor Potential Vanilloid 1 (TRPV1) receptors, which are mainly expressed on capsicin-sensitive sensory nerve ending. Intraplantarly (i.pl.) injection of RTX (0.03 μg/ml; 20 μl) into one of the hindpaws induced an acute inflammation and a robust drop of heat and mechanical thresholds.
The noxious heat threshold of the paw, defined as the lowest temperature evoking nocifensive behaviour—was measured with an increasing-temperature hot plate (IITC Life Science, Woodland Hills, Calif., USA). After habituation, mice were placed onto the plate, which was then heated up from room temperature at a rate of 12° C./min until the animals showing nocifensive behaviour (licking, lifting or shaking one of the hindpaws). The corresponding plate temperature was considered as the noxious heat threshold.
Lines represent thermal and mechanical hyperalgesia before drug injection and 5, 10, 15, 20 min as well as 2, 4, 6, 24 hours, respectively after compound/solvent administration. Results are expressed as means±s.e.m. of the thermo- and mechanonociceptive threshold changes of n=7-8 per groups. Data were analysed with Two-way ANOVA following Bonferroni's post-test in comparison to determine differences between the pre- and post-injection values of the respective groups **p<0.01, *** p<0.001 SZV-1287 vs. saline and ### p<0.001 SZV-1911 vs. saline.

[3] = test system: sciatic nerve ligation-induced mechanical hyperalgesia; test: Sciatic nerve ligation-induced traumatic mononeuropathy, mechanical hyperalgesia in mice (dynamic plantar aesthesiometry); assay type: in vivo, male C57Bl/6 mice; conditions: mouse, injured paw, single dose 20 mg/kg i.p., 15 minutes after administration, vs postoperative control values
Description: as §2
Sciatic nerve ligation-induced traumatic mononeuropathy experiments were performed on male Wistar rats (250-300 g), and on male C57Bl/6 mice as well as resiniferatoxin- or formalin-induced hyperalgesia. […]
On the 3rd and on the 7th day following the nerve ligation, the mechano-nociceptive thresholds were determined directly before and 15 min after i.p. drug administration to observe the difference between pre-injection and post-injection thresholds in mice. We determined the developing cold allodynia following the sciatic nerve ligation at Days 3 and 7. […]
The mechanical touch sensitivity thresholds of the plantar surface of the paws was determined by aesthesiometry (Ugo Basile Dynamic Plantar Aesthesiometer 37400; Comerio, Italy). […]

[4] = test system: formalin-induced acute nocifensive behaviours and hyperalgesia; test: Formalin-induced acute nocifensive behaviour and hyperalgesia in mice; assay type: in vivo, male C57Bl/6 mice; conditions: mouse
Description: as §2
as §3, with “libitum. […]” for “libitum.”
The noxious heat threshold of the paw, defined as the lowest temperature evoking nocifensive behaviour—was measured with an increasing-temperature hot plate (IITC Life Science, Woodland Hills, Calif., USA). […]
The total duration of paw licking and lifting were expressed to representing the nociceptive behaviour. […] Mechanical hyperalgesia values were determined as % by comparing the nociceptive thresholds measured at 2 and 4 hours after the application to the initial threshold values. Results are expressed as means±s.e.m. of the thermo- and mechanonociceptive threshold changes of n=11-11 animals/groups. Data were analysed with One-way ANOVA following Bonferroni's post-test in comparison to determine differences between the pre- and post-injection values of the respective groups.

## C=C(CNN)c1ccccc1 [SZV-1911, (2-phenyl-2-propen-1-yl)hydrazine]
[1]
  neuropathic cold hyperalgesia (cold allodynia, paw withdrawal latency): did not influence
[2]
  change of the mechanonociceptive thresholds, contralateral side of the operated rats: No change
  inhibitory effect on mechanical allodynia: approximately 30%
  mechanical allodynia (decrease of withdrawal threshold vs initial control) after drug injection: 32.9±3.4%
  change of the mechanonociceptive thresholds, sham-operated group: No change
RTX-induced hyperalgesia; 20 mg/kg i.p. pretreatment
  drop of mechanonociceptive threshold after RTX at 2 hours: 14.7±6%
RTX-induced hyperalgesia; 20 mg/kg i.p. pretreatment, 4 hours, solvent group 35.3±3%
  change of mechanonociceptive threshold after RTX at 4 hours: 6.5±6%
RTX-induced hyperalgesia
  acute neurogenic inflammatory heat allodynia: moderately decreased
[3]; 20 mg/kg
  sciatic nerve ligation-induced neuropathic mechanical hyperalgesia: significantly diminished; also recorded: significantly decreased

## ON=CCCc1nc(-c2ccccc2)c(-c2ccccc2)o1 [SZV-1287, 3-(4,5-diphenyl-1,3-oxazol-2-yl)propanal oxime]
[4]; 1 hour, basal 44.8±1.7° C., saline treated mice 37.4±3° C.
  thermonociceptive threshold after formalin application: 37.5±4 °C
[4]; formalin i.pl., early phase (0-5 min), vs saline
  nocifensive behaviour (total duration of paw lickings and liftings), early phase: significantly lower
[4]; formalin i.pl., late phase (20-45 min), vs saline
  nocifensive behaviour (total duration of paw lickings and liftings), late phase: significantly lower
[1]
  neuropathic cold hyperalgesia (cold allodynia, paw withdrawal latency): did not influence
[2]
  change of the mechanonociceptive thresholds, contralateral side of the operated rats: No change
  inhibitory effect on mechanical allodynia: approximately 30%
  mechanical allodynia (decrease of withdrawal threshold vs initial control) after drug injection: 34.6±7.6%
  change of the mechanonociceptive thresholds, sham-operated group: No change
RTX-induced hyperalgesia; 20 mg/kg i.p. pretreatment
  drop of mechanonociceptive threshold after RTX at 2 hours: 22.1±7%
RTX-induced hyperalgesia; 20 mg/kg i.p. pretreatment, maintained during 15 minutes, solvent group approx. 8 degree
  drop of heat threshold after intraplantar RTX: 1-2 °C
RTX-induced hyperalgesia
  acute neurogenic inflammatory heat allodynia: moderately decreased
[3]
  sciatic nerve ligation-induced neuropathic mechanical hyperalgesia: significantly decreased
